Measurements reported in US20260124237A1, “CARTILAGE REGENERATION COMPOSITION” (KOBAYASHI PHARMACEUTICAL CO., LTD., priority 2021, published 2026).

Columns and labels:
Type in all cases: cell-based
[1] = system: human bone marrow-derived mesenchymal stem cells; test: Induction of differentiation to cartilaginous cells in three-dimensional culture (safranin O area); conditions: for Differentiated cartilaginous cell area ratio: control = 1; for activity to induce differentiation to cartilaginous cells (in words): summary of Tables 4 to 11
Experimental: In accordance with Tissue Engineering, (US), 2010, 16 (1), p 81-91. DOI: 10.1089=ten.tec.2008.0693, mesenchymal stem cells were isolated from human normal bone marrow in a dedicated culture medium, and then the cells were grown. The grown cells were recovered, added with an equivalent amount of a cell freezing damage protection liquid CP-1 (KYOKUTO PHARMACEUTICAL INDUSTRIAL CO., LTD), and cryopreserved.
It is known that cartilaginous cells dedifferentiate in two-dimensional culture. As a culture system of cartilaginous cells closer to nature, a technique called three-dimensional culture is adopted. The thawed and grown human bone marrow-derived mesenchymal stem cells were dispensed into 15 mL tubes (made of TPP) by 2.5×10^5 cells, and centrifuged at 1000 rpm for 3 minutes at room temperature. The supernatant was removed and replaced with 0.5 mL of a culture medium to induce differentiation to cartilaginous cells in accordance with Document A. At the same time, as test substances, the garcinia extract, HCA·Ca, and/or the component (B) (components (B1) to (B4)) were added at the concentration shown in Tables 4 to 11. After cultured for 21 days, the cells were fixed in a 4% paraformaldehyde·phosphate buffer for 12 hours, dehydrated in 70% ethanol, and then embedded in paraffin, and then specimens were prepared. In the prepared specimen, the acidic polysaccharides as a cartilage matrix was stained with safranin O, and then the morphology of differentiated cartilaginous cells was observed using an optical microscope (magnification: 10 times). Furthermore, regarding the area showing a red color by safranin O staining, the relative area (differentiated cartilaginous cell area ratio) was calculated using an image analysis software Image J such that the control (Comparative Example 1) had the area of 1.
Except that the component (component (B4)) shown in Table 12 (a) and Table 12 (b) was used as the component (B), and the addition amount of the component (A) and the component (B) (component (B4)) was as shown in Table 12 (a) and Table 12 (b), the same procedure as in Test example 2 was carried out to calculate the differentiated cartilaginous cell area ratio and measure the amount of GAG. The results of the differentiated cartilaginous cell area ratio are shown in Table 12 (a) and Table 12 (b), and the measurement results of the amount of GAG are shown in FIG. 5.

[2] = system: Human iPS cell-derived mesenchymal stem cells; test: Differentiation to cartilaginous cells and cartilage matrix production in two-dimensional culture (Alcian blue); conditions: Table 2a: garcinia extract or glucosamine (B4) alone; about 10 days culture; Alcian blue OD 620 nm; control = 1
Text: In accordance with PLOS ONE, (US), 2014, 9 (12), e112291. DOI: 10.1371/journal.pone.0112291 (hereinafter, described as “Document A”), mesenchymal stem cells were induced from human normal iPS cells via neural crest cells, added with an equivalent amount of a cell freezing damage protection liquid CP-1 (manufactured by KYOKUTO PHARMACEUTICAL INDUSTRIAL CO., LTD), and cryopreserved.
Human iPS cell-derived mesenchymal stem cells were thawed and grown, and seeded in a 96 well plate (manufactured by Corning) in 1×10^5 cells/well. After 24 hours, the culture supernatant was removed, and replaced with a culture medium to induce differentiation to cartilaginous cells in accordance with Document A. To the culture medium to induce differentiation to cartilaginous cells, the garcinia extract and/or the component (B) (components (B1) to (B4)) as test substances were added so that the final concentration was the concentration shown in Tables 1 to 3. No test substance was added to the control group. The cells were cultured for about 10 days, and then fixed with a 4% paraformaldehyde·phosphate buffer (manufactured by FUJIFILM Wako Pure Chemical Corporation). After fixed, the cells were stained with an Alcian blue solution (manufactured by MUTO PURE CHEMICALS CO., LTD.) for 1 hour, and the dye was eluted using a 6 M guanidine hydrochloride solution (manufactured by Tokyo Chemical Industry Co., Ltd.). The eluate was transferred to a 96 well plate, and the OD value of each well at 620 nm was measured with a microplate reader to measure the amount of matrix produced by differentiation-induced cartilaginous cells.

[3] = system: human bone marrow-derived mesenchymal stem cells; test: Cartilage matrix production activity (amount of GAG in pellets); conditions: FIGS. 1 to 4; pellets after 21 days three-dimensional culture, papain digestion
Experimental: LLC is solubilized in 100 mM phosphate buffer pH 7.4, 5 mM L-cysteine hydrochloride monohydrate, and 10 mM EDTA), and then the amount of GAG (glycosaminoglycan) was measured using a GAG quantification kit (manufactured by Blyscan). The larger the amount of GAG, the larger the amount of cartilage matrix produced. […] The results of the differentiated cartilaginous cell area ratio are shown in Table 12 (a) and Table 12 (b), and the measurement results of the amount of GAG are shown in FIG. 5.

[4] = Table 12a, Test Example 3: HCA·Ca 25 μM or constituent sugar (B4) 2.5 μM alone
[5] = Table 7: HCA·Ca and/or glucosamine (B4), 21 days, safranin O red area
[6] = Table 6: garcinia extract and/or glucosamine (B4), 21 days, safranin O red area

Row | Compound | Differentiated cartilaginous cell area ratio [1, 4] | Ratio of cartilage matrix production [2] | other results
1 | CC(=O)N[C@H]1C(O)O[C@H](CO)[C@H](O)[C@@H]1O (stereo partly drawn) [compound 45, N-acetyl-D-galactosamine] | 1 | – | –
2 | N[C@H]1C(O)O[C@H](CO)[C@@H](O)[C@@H]1O (stereo partly shown) [compound 6, Glucosamine] | – | 1.00 | –
3 | Cl.N[C@H]1C(O)O[C@H](CO)[C@H](O)[C@@H]1O (stereo partly drawn) [compound 44, D-(+)-galactosamine hydrochloride] | 0.7 | – | –
4 | CC(=O)N[C@H]1C(O)O[C@H](CO)[C@@H](O)[C@@H]1O (stereo partly drawn) [compound 41, N-acetyl-D-glucosamine] | 1.8 | – | –
5 | N[C@H]1C(O)O[C@H](CO)[C@@H](O)[C@@H]1O (stereo partly shown) [compound 7, Glucosamine] | – | 1.01 | –
6 | N[C@H]1C(O)O[C@H](CO)[C@@H](O)[C@@H]1O (stereo partly shown) [compound 10, Glucosamine] | – | 1.01 | –
7 | Cl.N[C@H]1C(O)O[C@H](CO)[C@@H](O)[C@@H]1O (stereo partly drawn) [compound 40, D-(+)-glucosamine hydrochloride] | 0.6 | – | –
8 | O=C([O-])C[C@@](O)(C(=O)[O-])[C@H](O)C(=O)[O-].O=C([O-])C[C@@](O)(C(=O)[O-])[C@H](O)C(=O)[O-].[Ca+2].[Ca+2].[Ca+2] [compound 39, (−) Hydroxycitric acid-3 calcium] | 1.8 | – | –
9 | O=C([O-])C[C@@](O)(C(=O)[O-])[C@H](O)C(=O)[O-].O=C([O-])C[C@@](O)(C(=O)[O-])[C@H](O)C(=O)[O-].[Ca+2].[Ca+2].[Ca+2] [compound 32, (−) Hydroxycitric acid-3 calcium] | – | – | Differentiated cartilaginous cell area ratio ([1]; Table 5: HCA·Ca and/or chondroitin sulfate (B1), 21 days, safranin O red area): 1.7; Differentiated cartilaginous cell area ratio [1, 5]: 1.7; Differentiated cartilaginous cell area ratio ([1]; Table 9: HCA·Ca and/or hyaluronic acid (B3), 21 days, safranin O red area): 3.5; Differentiated cartilaginous cell area ratio ([1]; Table 11: HCA·Ca and/or proteoglycan (B2), 21 days, safranin O red area): 1.5
10 | N[C@H]1C(O)O[C@H](CO)[C@@H](O)[C@@H]1O (stereo partly shown) [compound 11, Glucosamine] | – | 1.01 | –
11 | Sodium hyaluronate [hyaluronic acid] | – | – | cartilage matrix production activity (amount of GAG, in words) [3]: almost no activity to induce differentiation to cartilaginous cells; activity to induce differentiation to cartilaginous cells (in words) [1]: almost no activity to induce differentiation to cartilaginous cells
12 | CC(=O)N[C@H]1C(O)O[C@H](COS(=O)(=O)[O-])[C@@H](O)[C@@H]1O.[Na+] (stereo partly drawn) [compound 42, Sodium N-acetyl-D-glucosamine 6-sulfate] | 2 | – | –
13 | O=C[C@H](O)[C@@H](O)[C@H](O)[C@H](O)C(=O)O [compound 43, D-glucuronic acid] | 0.7 | – | –
14 | N[C@H]1C(O)O[C@H](CO)[C@@H](O)[C@@H]1O (stereo partly shown) [compound 13, Glucosamine] | – | 1.00 | –
15 | N[C@H]1C(O)O[C@H](CO)[C@@H](O)[C@@H]1O (stereo partly shown) [compound 34, Glucosamine] | – | – | Differentiated cartilaginous cell area ratio [1, 6]: 0.2; Differentiated cartilaginous cell area ratio [1, 5]: 0.2
16 | N[C@H]1C(O)O[C@H](CO)[C@@H](O)[C@@H]1O (stereo partly shown) [compound 8, Glucosamine] | – | 1.01 | –
17 | N[C@H]1C(O)O[C@H](CO)[C@@H](O)[C@@H]1O (stereo partly shown) [compound 9, Glucosamine] | – | 1.01 | –
18 | CC(=O)N[C@H]1C(O)O[C@H](COS(=O)(=O)[O-])[C@H](O)[C@@H]1O.[Na+] (stereo partly drawn) [compound 46, Sodium N-acetyl-D-galactosamine 6-sulfate] | 1.4 | – | –
19 | N[C@H]1C(O)O[C@H](CO)[C@@H](O)[C@@H]1O (stereo partly shown) [glucosamine, Glucosamine] | – | – | cartilage matrix production activity (amount of GAG, in words) [3]: reduce the cartilage matrix production activity; activity to induce differentiation to cartilaginous cells (in words) [1]: reduce the activity to induce differentiation to cartilaginous cells
20 | N[C@H]1C(O)O[C@H](CO)[C@@H](O)[C@@H]1O (stereo partly shown) [compound 33, Glucosamine] | – | – | Differentiated cartilaginous cell area ratio [1, 6]: 0.1; Differentiated cartilaginous cell area ratio [1, 5]: 0.1
21 | N[C@H]1C(O)O[C@H](CO)[C@@H](O)[C@@H]1O (stereo partly shown) [compound 12, Glucosamine] | – | 1.02 | –
22 | N[C@H]1C(O)O[C@H](CO)[C@@H](O)[C@@H]1O (stereo partly shown) [compound 14, Glucosamine] | – | 1.00 | –
23 | O=C([O-])C[C@@](O)(C(=O)[O-])[C@H](O)C(=O)[O-].O=C([O-])C[C@@](O)(C(=O)[O-])[C@H](O)C(=O)[O-].[Ca+2].[Ca+2].[Ca+2] [calcium hydroxycitrate, (−) Hydroxycitric acid-3 calcium] | – | – | cartilage matrix production activity (amount of GAG, in words) [3]: exhibits a cartilage matrix production activity, the degree of which is limited; activity to induce differentiation to cartilaginous cells (in words) [1]: exhibits an activity to induce differentiation to cartilaginous cells, the degree of which is limited
